# Target: T1, human Arginine Vasopressin Receptor 1b (AVPR1b) (Homo sapiens, UniProt P47901)
# T1 construct: expressed in transfected cells; host or cells: CHO (CHO-AVPR1b, kept under G418 selection)
# T1 sequence (P47901 1-424): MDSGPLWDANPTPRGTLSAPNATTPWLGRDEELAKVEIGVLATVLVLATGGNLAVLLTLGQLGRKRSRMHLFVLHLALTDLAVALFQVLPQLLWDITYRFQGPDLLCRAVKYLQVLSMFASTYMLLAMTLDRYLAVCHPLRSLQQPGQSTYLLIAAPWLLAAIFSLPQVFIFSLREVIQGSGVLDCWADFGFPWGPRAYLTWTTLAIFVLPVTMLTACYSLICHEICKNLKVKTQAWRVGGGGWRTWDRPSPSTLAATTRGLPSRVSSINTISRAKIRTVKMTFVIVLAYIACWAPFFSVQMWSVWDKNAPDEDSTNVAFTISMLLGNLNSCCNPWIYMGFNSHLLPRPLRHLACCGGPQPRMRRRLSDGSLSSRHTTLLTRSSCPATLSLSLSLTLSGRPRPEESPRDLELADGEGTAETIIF
# Test: Vasopressin V1b receptor antagonist assay (FLIPR calcium, CHO-AVPR1b cells)
# Type: cell-based
# Description: The purpose of the assay was to determine the inhibitory effect of synthesized compounds on the Vasopressin V1b receptor. The assay was performed in Chinese Hamster Ovary (CHO) cells expressing the human Arginine Vasopressin Receptor 1b (AVPR1b). Arginine Vasopressin (AVP) evokes an increase in intracellular calcium in CHO-AVPR1b cells which is measured in a fluorescence assay on the FLIPR^TETRA using calcium sensitive dyes. Test compounds were assessed for their ability to affect the magnitude of the response to AVP, with antagonists showing a concentration-dependent reduction in the AVP-mediated fluorescence.
# CHO-AVPR1b cells were maintained in routine culture in T175 Flasks at 37° C., 5% CO2. The growth medium consisted of Ham's F12 media supplemented with 10% v/v fetal bovine serum, 1× non-essential amino acids, and 0.4 mg/ml Geneticin G418.
# Cells were harvested from T175 flasks when they were 80-90% confluent by first washing the cell monolayer with PBS and then dissociated using trypsin 0.05%/EDTA (3 mL for a T175 Flask). The flasks were incubated at room temperature until the cells detached. To the cell suspension, 10 ml of growth media was added and the cell density determined using the Vi-Cell automated cell counter. The cells were spun at 1000 rpm for 3 minutes, then the supernatant was carefully removed and discarded. The cell pellet was re-suspended at 6.0e^5 cells/ml in growth media. 25 μL of cells in growth media was dispensed into each well (15,000 cells per well) of a poly-D-lysine coated black, clear bottomed, 384-well plate. The plates were incubated at 37° C., 5% CO2 overnight.
# At the start of each assay day, the potency of AVP was assessed and an EC80 concentration determined for subsequent compound profiling. Assays were performed using a two-step addition protocol on the FLIPR^TETRA; first addition of 5 μl of control or test compound at 10× final in assay buffer with 15 min incubation at 37° C., 5% CO2 followed by 10 μl of AVP at 6× final concentration in assay buffer. Changes in fluorescence were monitored for 3 min after both additions on the FLIPR^TETRA using 470-495 nm excitation and 515-575 nm emission wavelengths. The assay buffer consisted of HBSS (+Ca/+Mg) supplemented with 20 mM HEPES, and for the preparation of the AVP agonist only, 0.1% w/v bovine serum albumin. The assay was initiated by the removal of growth media from the cells and replacement with 45 μl of Calcium-6 dye (Molecular Devices) prepared at 1× in assay buffer. Cells were loaded with dye for 60-90 min at 37° C., 5% CO2 before initiation of the FLIPR^TETRA protocol. […] For compound profiling, test compounds were first serially diluted in DMSO (10-point curve, 1:3 dilutions) then diluted 33.3-fold in assay buffer prior to addition to the dye loaded cells on the FLIPR^TETRA. At the end of the incubation period 10 μl of AVP in assay buffer containing 0.1% BSA was added at the previously determined EC80 concentration.
# In-plate controls for the assay included a Nelivaptan concentration-response curve as the reference V1b antagonist and an AVP concentration-response curve to confirm the reproducibility of the EC80 used for the compound challenge.
row,Structure (SMILES),IC50 [µM]
1,"O=C(N1CC2(C1)CN(c1ccc(F)cn1)C2)N1CCC(O)c2cc(Cl)ccc21 (single isomer, unassigned) [13-1-A]",≥ 1
2,O=C(N1CC2(C1)CN(c1cnccn1)C2)N1CCC(O)c2cc(Cl)ccc21 (stereo not shown) [13-3],≥ 1
3,O=C(N1CC2(C1)CN(c1cccnn1)C2)N1CCOc2cc(Cl)c(F)cc21 [1-81],≥ 1
4,O=C(N1CC2(C1)CN(c1ccc(F)cn1)C2)N1CCOCc2cc(Cl)ccc21 [8-4],≥ 1
5,"O=C(N1CC2(C1)CN(c1ccccn1)C2)N1CCC(O)c2cc(Cl)ccc21 (single isomer, unassigned) [13-2-A]",≥ 1
6,CC1CN(C(=O)N2CC3(C2)CN(c2ccc(F)cn2)C3)c2ccc(Cl)cc2O1 (stereo not shown) [9-3],≥ 1
7,CC1COc2cc(F)c(F)cc2N1C(=O)N1CC2(C1)CN(c1ccc(F)cn1)C2 (stereo not shown) [19-5],≥ 1
8,"CC1COc2cc(F)c(F)cc2N1C(=O)N1CC2(C1)CN(c1ccc(F)cn1)C2 (single isomer, unassigned) [19-5-B]",≥ 1
9,O=C(N1CC2(C1)CN(c1ccc(F)cn1)C2)N1CCc2cc(Cl)ccc21 [8-11],≥ 1
10,O=C(N1CC2(C1)CN(c1ccccn1)C2)N1CCOCc2cc(Cl)ccc21 [8-12],≥ 1
11,"CC1COc2cc(F)ccc2N1C(=O)N1CC2(C1)CN(c1noc3ccccc13)C2 (single isomer, unassigned) [4-3-B]",≥ 1
12,"CC1COc2cc(F)ccc2N1C(=O)N1CC2(C1)CN(c1cc(C#N)ccn1)C2 (single isomer, unassigned) [20-3-B]",≥ 1
13,Cc1cccnc1N1CC2(CN(C(=O)N3CCOc4cc(Cl)ccc43)C2)C1 [1-5],≥ 1
14,CC1COc2cc(F)c(F)cc2N1C(=O)N1CC2(C1)CN(c1cccnn1)C2 (stereo not shown) [19-3],≥ 1
15,COc1ccc2c(c1)OCCN2C(=O)N1CC2(C1)CN(c1ccc(F)cn1)C2 [9-2],≥ 1
16,"CC1COc2cc(Cl)c(F)cc2N1C(=O)N1CC2(C1)CN(c1cccnn1)C2 (single isomer, unassigned) [19-4-A]",≥ 1
17,"CC1COc2cc(F)c(F)cc2N1C(=O)N1CC2(C1)CN(c1cccnn1)C2 (single isomer, unassigned) [19-3-B]",≥ 1
18,"O=C(N1CC2(C1)CN(c1ccccn1)C2)N1CCC(O)c2cc(Cl)ccc21 (single isomer, unassigned) [13-2-B]",≥ 1
19,"CCC1COc2cc(Cl)ccc2N1C(=O)N1CC2(C1)CN(c1ccccn1)C2 (stereo not shown) [11-1, (7-chloro-3-ethyl-2,3-dihydro-4H-benzo[b][1,4]oxazin-4-yl)(6-(pyridin-2-yl)-2,6-diazaspiro[3.3]heptan-2-yl)methanone]",≥ 1
20,"CC1CN(C(=O)N2CC3(C2)CN(c2ccc(F)cn2)C3)c2ccc(Cl)cc2O1 (single isomer, unassigned) [9-3-A]",≥ 1
21,O=C(N1CC2(C1)CN(c1ncccn1)C2)N1CCOc2cc(Cl)ccc21 [1-4],≥ 1
22,CC1Cc2cc(Cl)ccc2N1C(=O)N1CC2(C1)CN(c1ccc(F)cn1)C2 (stereo not shown) [8-16],≥ 1
23,COc1ccnc(N2CC3(CN(C(=O)N4CCOc5cc(Cl)ccc54)C3)C2)c1 [1-15],≥ 1
24,O=C(N1CC2(C1)CN(c1cc(F)ccn1)C2)N1CCc2cc(Cl)ccc21 [1-79],≥ 1
25,CC1COc2cc(F)ccc2N1C(=O)N1CC2(C1)CN(c1noc3ccccc13)C2 (stereo not shown) [4-3],≥ 1
26,"O=C(N1CC2(C1)CN(c1ccc(F)cn1)C2)N1CCC(F)c2cc(Cl)ccc21 (stereo not shown) [14-1, (6-chloro-4-fluoro-3,4-dihydroquinolin-1(2H)-yl)(6-(5-fluoropyridin-2-yl)-2,6-diazaspiro[3.3]heptan-2-yl)methanone]",≥ 1
27,O=C(N1CC2(C1)CN(c1ccccn1)C2)N1CCc2cc(Cl)ccc21 [1-77],≥ 1
28,O=C(N1CC2(C1)CN(c1ncccc1F)C2)N1CCc2cc(Cl)ccc21 [1-76],≥ 1

# Now from value to compound:
row,IC50 [µM],Structure (SMILES)
1,≥ 1,"CC1COc2cc(F)ccc2N1C(=O)N1CC2(C1)CN(c1ccc(F)cn1)C2 (single isomer, unassigned) [12-1-B]"
2,≥ 1,"COc1ccnc(N2CC3(CN(C(=O)N4c5ccc(Cl)cc5OCC4C)C3)C2)c1 (single isomer, unassigned) [20-8-B]"
3,≥ 1,"CC1COc2cc(F)ccc2N1C(=O)N1CC2(C1)CN(c1ncccn1)C2 (stereo not shown) [18-1, (7-fluoro-3-methyl-2,3-dihydro-4H-benzo[b][1,4]oxazin-4-yl)(6-(pyrimidin-2-yl)-2,6-diazaspiro[3.3]heptan-2-yl)methanone]"
4,≥ 1,CC1COc2cc(Cl)ccc2N1C(=O)N1CC2(C1)CN(c1cc(C#N)ccn1)C2 (stereo not shown) [20-6]
5,≥ 1,"CC1COc2cc(Cl)ccc2N1C(=O)N1CC2(C1)CN(c1cccnc1)C2 (single isomer, unassigned) [20-1-B]"
6,≥ 1,"COc1ccnc(N2CC3(CN(C(=O)N4c5ccc(Cl)cc5OCC4C)C3)C2)n1 (single isomer, unassigned) [20-9-B]"
7,≥ 1,"Cc1ccnc(N2CC3(CN(C(=O)N4c5ccc(Cl)cc5OCC4C)C3)C2)n1 (single isomer, unassigned) [20-12-B]"
8,≥ 1,CC1COc2cc(Cl)ccc2N1C(=O)N1CC2(C1)CN(c1noc3cccnc13)C2 (stereo not shown) [18-3]
9,≥ 1,"Cc1cncc(N2CC3(CN(C(=O)N4c5ccc(F)cc5OCC4C)C3)C2)n1 (single isomer, unassigned) [20-2-B]"
10,≥ 1,"CC1COc2cc(F)c(F)cc2N1C(=O)N1CC2(C1)CN(c1ncccn1)C2 (stereo not shown) [19-1, (6,7-difluoro-3-methyl-2,3-dihydro-4H-benzo[b][1,4]oxazin-4-yl)(6-(pyrimidin-2-yl)-2,6-diazaspiro[3.3]heptan-2-yl)methanone]"
11,≥ 1,Cc1nccnc1N1CC2(CN(C(=O)N3c4ccc(Cl)cc4OCC3C)C2)C1 (stereo not shown) [20-10]
12,≥ 1,"CC1COc2cc(Cl)ccc2N1C(=O)N1CC2(C1)CN(c1cccnn1)C2 (single isomer, unassigned) [9-1-B]"
13,≥ 1,"CC1COc2cc(Cl)ccc2N1C(=O)N1CC2(C1)CN(c1cccnn1)C2 (stereo not shown) [9-1, (7-chloro-3-methyl-2,3-dihydro-4H-benzo[b][1,4]oxazin-4-yl)(6-(pyridazin-3-yl)-2,6-diazaspiro[3.3]heptan-2-yl)methanone]"
14,≥ 1,"CC1COc2cc(F)c(F)cc2N1C(=O)N1CC2(C1)CN(c1ncccn1)C2 (single isomer, unassigned) [19-1-B]"
15,≥ 1,CC1COc2cc(Cl)c(F)cc2N1C(=O)N1CC2(C1)CN(c1ncccn1)C2 (stereo not shown) [19-2]
16,≥ 1,"Cc1nccnc1N1CC2(CN(C(=O)N3c4ccc(Cl)cc4OCC3C)C2)C1 (single isomer, unassigned) [20-10-A]"
17,≥ 1,Cc1cnc(N2CC3(CN(C(=O)N4c5ccc(Cl)cc5OCC4C)C3)C2)nc1 (stereo not shown) [20-13]
18,≥ 1,"Cc1nc(N2CC3(CN(C(=O)N4CCOc5cc(Cl)ccc54)C3)C2)ncc1F [6-1, (7-chloro-2,3-dihydro-4H-benzo[b][1,4]oxazin-4-yl)(6-(5-fluoro-4-methylpyrimidin-2-yl)-2,6-diazaspiro[3.3]heptan-2-yl)methanone]"
19,≥ 1,Cc1cncc(N2CC3(CN(C(=O)N4c5ccc(F)cc5OCC4C)C3)C2)n1 (stereo not shown) [20-2]
20,≥ 1,Cc1nc(N2CC3(CN(C(=O)N4c5ccc(Cl)cc5OCC4C)C3)C2)ncc1F (stereo not shown) [20-7]
21,≥ 1,"Cc1ccnc(N2CC3(CN(C(=O)N4c5ccc(F)cc5OCC4C)C3)C2)c1 (single isomer, unassigned) [20-4-B]"

# — patent publication US12152038B2, “Vasopressin receptor antagonists and products and methods related thereto” (Neumora Therapeutics, Inc., priority 2017, dated 2024)
